In general, IC50 refers to the midpoint of a concentration-inhibition curve.

For the assay, the target named is CDK2/Cyclin E1 (Homo sapiens (Human), UniProt P24941). The experiment in a line: CDK2/Cyclin E1 HTRF enzyme activity assay. It is filed as biochemical. The following applies: 1 mM ATP; CDK2/Cyclin E1 0.25 nM; 60 minutes at room temperature. The procedure, abridged: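 HTRF read-out of 4E-BP1 (Thr37/46) peptide phosphorylation (ULight peptide 50 nM) by 0.25 nM baculovirus-made GST-CDK2/FLAG-Cyclin E1, with ATP at 50 μM or 1 mM, 60 min at room temperature, pH 7.5. Eu-anti-phospho antibody with EDTA quench; IC50 fitted by three- or four-parameter dose-response.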
Background: TR-FRET usually uses a lanthanide donor and a delayed reading to cut background.
The compound `CS(=O)(=O)N1CCC(Nc2nc3cnc(-c4cn[nH]c4)c(OCC4(C(F)(F)F)CCC4)n3n2)CC1` [Example 120, N-(1-(Methylsulfonyl)piperidin-4-yl)-6-(1H-pyrazol-4-yl)-5-((1-(trifluoromethyl)cyclobutyl)methoxy)-[1,2,4]triazolo[1,5-a]pyrazin-2-amine] had a concentration for half-maximal inhibition (IC50) of at most 20 nM. Next, `CC(C)CCOc1c(-c2cn[nH]c2)ncc2nc(NC3CCN(S(C)(=O)=O)CC3)nn12` [Example 121, 5-(Isopentyloxy)-N-(1-(methylsulfonyl)piperidin-4-yl)-6-(1H-pyrazol-4-yl)-[1,2,4]triazolo[1,5-a]pyrazin-2-amine]: at most 20 nM; `CCOc1c(-c2cn[nH]c2)ncc2nc(NC3CCN(S(C)(=O)=O)CC3)nn12` [Example 122, 5-Ethoxy-N-(1-(methylsulfonyl)piperidin-4-yl)-6-(1H-pyrazol-4-yl)-[1,2,4]triazolo[1,5-a]pyrazin-2-amine]: at most 20 nM; `CCSc1c(-c2cn[nH]c2)ncc2nc(NC3CCN(S(C)(=O)=O)CC3)nn12` [Example 123, 5-(Ethylthio)-N-(1-(methylsulfonyl)piperidin-4-yl)-6-(1H-pyrazol-4-yl)-[1,2,4]triazolo[1,5-a]pyrazin-2-amine]: at most 20 nM. In turn, `CC(C)Sc1c(-c2cn[nH]c2)ncc2nc(NC3CCN(S(C)(=O)=O)CC3)nn12` [Example 124, 5-(Isopropylthio)-N-(1-(methylsulfonyl)piperidin-4-yl)-6-(1H-pyrazol-4-yl)-[1,2,4]triazolo[1,5-a]pyrazin-2-amine] yielded an IC50 of at most 20 nM. Regarding `C[C@@H]1CN(S(C)(=O)=O)CC[C@@H]1Nc1nc2cnc(-c3cn[nH]c3)c(N3CCCCC3)n2n1` [Example 125, N-((3R,4S)-3-Methyl-1-(methylsulfonyl)piperidin-4-yl)-5-(piperidin-1-yl)-6-(1H-pyrazol-4-yl)-[1,2,4]triazolo[1,5-a]pyrazin-2-amine], the half-maximal inhibitory concentration (IC50) is at most 20 nM. Compound `CS(=O)(=O)N1CCC(Nc2nc3cnc(-c4cn[nH]c4)c(N4CCCCC4)n3n2)CC1` [Example 126, N-(1-(Methylsulfonyl)piperidin-4-yl)-5-(piperidin-1-yl)-6-(1H-pyrazol-4-yl)-[1,2,4]triazolo[1,5-a]pyrazin-2-amine] had a half-inhibitory concentration (IC50) of at most 20 nM.

On to `C[C@@H]1CN(S(C)(=O)=O)CC[C@@H]1Nc1nc2cnc(-c3cn[nH]c3)c(N3CCCC(F)(F)C3)n2n1` [Example 127, 5-(3,3-Difluoropiperidin-1-yl)-N-((3R,4S)-3-methyl-1-(methylsulfonyl)piperidin-4-yl)-6-(1H-pyrazol-4-yl)-[1,2,4]triazolo[1,5-a]pyrazin-2-amine], for which the 50% inhibitory concentration (IC50) is at most 20 nM. The figure for `CS(=O)(=O)N1CCC(Nc2nc3cnc(-c4cn[nH]c4)c(N4CCC[C@@H](F)C4)n3n2)CC1` [Example 128, (R)-5-(3-Fluoropiperidin-1-yl)-N-(1-(methylsulfonyl)piperidin-4-yl)-6-(1H-pyrazol-4-yl)-[1,2,4]triazolo[1,5-a]pyrazin-2-amine] is at most 20 nM; for `CS(=O)(=O)N1CCC(Nc2nc3cnc(-c4cn[nH]c4)c(N4CCC[C@H](F)C4)n3n2)CC1` [Example 129, (S)-5-(3-Fluoropiperidin-1-yl)-N-(1-(methylsulfonyl)piperidin-4-yl)-6-(1H-pyrazol-4-yl)-[1,2,4]triazolo[1,5-a]pyrazin-2-amine] it is at most 20 nM; for `CS(=O)(=O)N1CCC(Nc2nc3cnc(-c4cn[nH]c4)c(N4CCC(F)(F)C4)n3n2)CC1` [Example 130, 5-(3,3-Difluoropyrrolidin-1-yl)-N-(1-(methylsulfonyl)piperidin-4-yl)-6-(1H-pyrazol-4-yl)-[1,2,4]triazolo[1,5-a]pyrazin-2-amine] it is at most 20 nM. Next, `CS(=O)(=O)N1CCC(Nc2nc3cnc(-c4cn[nH]c4)c(N4CC5CCC4C5)n3n2)CC1` (centres unmarked) [Example 131, 5-(2-Azabicyclo[2.2.1]heptan-2-yl)-N-(1-(methylsulfonyl)piperidin-4-yl)-6-(1H-pyrazol-4-yl)-[1,2,4]triazolo[1,5-a]pyrazin-2-amine]: at most 20 nM; `C[C@H]1CCCCN1c1c(-c2cn[nH]c2)ncc2nc(NC3CCN(S(C)(=O)=O)CC3)nn12` [Example 132, (A)-5-(2-Methylpiperidin-1-yl)-N-(1-(methylsulfonyl)piperidin-4-yl)-6-(1H-pyrazol-4-yl)-[1,2,4]triazolo[1,5-a]pyrazin-2-amine]: at most 20 nM; `C[C@H]1CCCN1c1c(-c2cn[nH]c2)ncc2nc(NC3CCN(S(C)(=O)=O)CC3)nn12` [Example 133, (S)-5-(2-Methylpyrrolidin-1-yl)-N-(1-(methylsulfonyl)piperidin-4-yl)-6-(1H-pyrazol-4-yl)-[1,2,4]triazolo[1,5-a]pyrazin-2-amine]: at most 20 nM.

`CS(=O)(=O)N1CCC(Nc2nc3cnc(-c4cn[nH]c4)c(N4CC[C@H](C(F)F)C4)n3n2)CC1` [Example 134, (S)-5-(3-(Difluoromethyl)pyrrolidin-1-yl)-N-(1-(methylsulfonyl)piperidin-4-yl)-6-(1H-pyrazol-4-yl)-[1,2,4]triazolo[1,5-a]pyrazin-2-amine] yielded a half-inhibitory concentration (IC50) of at most 20 nM. The compound `CS(=O)(=O)N1CCC(Nc2nc3cnc(-c4cn[nH]c4)c(N4C5CCC4CC5)n3n2)CC1` [Example 135, 5-(7-Azabicyclo[2.2.1]heptan-7-yl)-N-(1-(methylsulfonyl)piperidin-4-yl)-6-(1H-pyrazol-4-yl)-[1,2,4]triazolo[1,5-a]pyrazin-2-amine] registered a half-maximal inhibitory concentration (IC50) of at most 20 nM. `CS(=O)(=O)N1CCC(Nc2nc3cnc(-c4cn[nH]c4)c(N4CCCC(C(F)(F)F)C4)n3n2)CC1` (centres unmarked) [Example 136, N-(1-(Methylsulfonyl)piperidin-4-yl)-6-(1H-pyrazol-4-yl)-5-(3-(trifluoromethyl)piperidin-1-yl)-[1,2,4]triazolo[1,5-a]pyrazin-2-amine] registered an IC50 of at most 20 nM.

For `[2H]C(C)(C)Oc1c(-c2cn[nH]c2)ncc2nc(N[C@H]3CCN(S(C)(=O)=O)C[C@H]3C)nn12` [Example 137, N-((3R,4S)-3-Methyl-1-(methylsulfonyl)piperidin-4-yl)-5-((propan-2-yl-2-d)oxy)-6-(1H-pyrazol-4-yl)-[1,2,4]triazolo[1,5-a]pyrazin-2-amine], the half-maximal inhibitory concentration (IC50) is at most 20 nM. Next, `[2H]C([2H])([2H])C(Oc1c(-c2cn[nH]c2)ncc2nc(N[C@H]3CCN(S(C)(=O)=O)C[C@H]3C)nn12)C([2H])([2H])[2H]` [Example 138, N-((3R,4S)-3-Methyl-1-(methylsulfonyl)piperidin-4-yl)-5-((propan-2-yl-1,1,1,3,3,3-d6)oxy)-6-(1H-pyrazol-4-yl)-[1,2,4]triazolo[1,5-a]pyrazin-2-amine]: at most 20 nM. Next, `[2H]C([2H])([2H])C([2H])(Oc1c(-c2cn[nH]c2)ncc2nc(N[C@H]3CCN(S(C)(=O)=O)C[C@H]3C)nn12)C([2H])([2H])[2H]` [Example 139, N-((3R,4S)-3-Methyl-1-(methylsulfonyl)piperidin-4-yl)-5-((propan-2-yl-d7)oxy)-6-(1H-pyrazol-4-yl)-[1,2,4]triazolo[1,5-a]pyrazin-2-amine]: at most 20 nM. Take `C[C@@H]1CN(S(C)(=O)=O)CC[C@@H]1Nc1nc2cnc(-c3cn[nH]c3)c(OC3CCCC3)n2n1` [Example 140, 5-(Cyclopentyloxy)-N-((3R,4S)-3-methyl-1-(methylsulfonyl)piperidin-4-yl)-6-(1H-pyrazol-4-yl)-[1,2,4]triazolo[1,5-a]pyrazin-2-amine]: the half-inhibitory concentration (IC50) was at most 20 nM.

In turn, `CC(C)Oc1c(-c2cn[nH]c2)ncc2nc(NC3CCN(S(C)(=O)=O)CC3)nn12` [Example 141, 5-Isopropoxy-N-(1-(methylsulfonyl)piperidin-4-yl)-6-(1H-pyrazol-4-yl)-[1,2,4]triazolo[1,5-a]pyrazin-2-amine] returned a half-inhibitory concentration (IC50) of at most 20 nM.

Take `[2H]C(C)(C)Oc1c(-c2cn[nH]c2)ncc2nc(NC3CCN(S(C)(=O)=O)CC3)nn12` [Example 142, N-(1-(Methylsulfonyl)piperidin-4-yl)-5-((propan-2-yl-2-d)oxy)-6-(1H-pyrazol-4-yl)-[1,2,4]triazolo[1,5-a]pyrazin-2-amine]: the IC50 is at most 20 nM.

Source of the values: patent publication US11851426B2, “Bicyclic amines as CDK2 inhibitors” (Incyte Corporation, priority 2019, dated 2023).
